Test results reported in patent publication US20220168309A1 (F-STAR THERAPEUTICS, INC., priority 2019, published 2022).
Like-named read-outs stand apart in the source and are kept apart here.

Target: STING (Homo sapiens, UniProt Q86WV6)
Assay: STING antagonist activity, cell-based ISG54 promoter-reporter luciferase measurement of IRF activity (THP-1 dual / RAW-ISG cells)
Conditions: Antagonist Activity of Exemplary Compounds, cell line and agonist not given
Procedure, shortened: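 THP-1 dual or RAW-ISG cells (50,000/well) pretreated 1 h with compound (10 to 0.01 uM), then stimulated with SB 11285 (30 nM or 1 μM) or 2′3′-cGAMP (10 ug/mL or lipo mixture) for 18–20 h at 37° C. IRF-driven luciferase read by Quanti-Luc; % inhibition versus untreated or DMSO wells, IC50 by curve fit.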

Chain of STING (Q86WV6 whole entry): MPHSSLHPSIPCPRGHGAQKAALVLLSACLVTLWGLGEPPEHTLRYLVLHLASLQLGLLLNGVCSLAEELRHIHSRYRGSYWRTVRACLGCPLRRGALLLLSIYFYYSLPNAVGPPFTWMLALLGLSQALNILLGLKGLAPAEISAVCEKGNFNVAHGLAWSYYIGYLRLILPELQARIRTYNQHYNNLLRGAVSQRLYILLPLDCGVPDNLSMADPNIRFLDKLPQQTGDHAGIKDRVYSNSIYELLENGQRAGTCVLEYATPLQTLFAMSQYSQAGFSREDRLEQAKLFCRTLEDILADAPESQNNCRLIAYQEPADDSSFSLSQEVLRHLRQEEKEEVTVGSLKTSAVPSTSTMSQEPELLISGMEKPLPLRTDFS

Compound: Cc1nc2nc(Cl)nc(S(=O)(=O)C(C)C)c2n1CCCCCCCCCCCCCCCCO [Compound 111, 16-(2-chloro-6-(isopropylsulfonyl)-8-methyl-7H-purin-7-yl)hexadecan-1-ol]
- IC50 (read-out: IC50): 1 to 1000 nM

Compound: CC1Nc2nc(Cl)nc(S(=O)(=O)C(C)C)c2N1CCCCCCCCCCCCCCCCO (stereo not drawn) [Compound 112, 16-(2-chloro-6-(isopropylsulfonyl)-8-methyl-8,9-dihydro-7H-purin-7-yl)hexadecan-1-ol]
- IC50 (read-out: IC50): 1000 to 5000 nM

Compound: Cc1nc2nc(Cl)nc(Cl)c2n1CCCCCCCCCCN1CCN(C)CC1 [Compound 113, 2,6-dichloro-8-methyl-7-(10-(4-methylpiperazin-1-yl)decyl)-7H-purine]
- IC50 (read-out: IC50): 1000 to 5000 nM

Compound: COC(=O)CCCCCCCCCCCCCCCn1c(CO)nc2nc(Cl)nc(S(=O)(=O)C(C)C)c21 [Compound 114, Methyl 16-(2-chloro-8-(hydroxymethyl)-6-(isopropylsulfonyl)-7H-purin-7-yl)hexadecanoate]
- IC50 (read-out: IC50): 1 to 1000 nM

Compound: Cc1nc2nc(Cl)nc(S(=O)(=O)C(C)C)c2n1CCCCCCCCCC[N+]1([O-])CCOCC1 [Compound 115, 4-(10-(2-chloro-6-(isopropylsulfonyl)-8-methyl-7H-purin-7-yl)decyl)-4-(11-oxidanyl)-4l4-morpholine]
- IC50 (read-out: IC50): > 20000 nM

Compound: COC(=O)CCCn1c(C)nc2nc(Cl)nc(Cl)c21 [Compound 116, methyl 4-(2,6-dichloro-8-methyl-7H-purin-7-yl)butanoate]
- IC50 (read-out: IC50): 5000 to 10000 nM

Compound: CCN(CC)c1nc2nc(Cl)nc(Cl)c2n1CCCCCCCCCCCCCCCC(=O)OC [Compound 117, methyl 16-(2,6-dichloro-8-(diethylamino)-7H-purin-7-yl)hexadecanoate]
- IC50: 5000 to 10000 nM

Compound: COC(=O)CCCn1c(C)nc2nc(Cl)nc(S(=O)(=O)C(C)C)c21 [Compound 118, methyl 4-(2-chloro-6-(isopropylsulfonyl)-8-methyl-7H-purin-7-yl)butanoate]
- IC50 (read-out: IC50): 1000 to 5000 nM

Compound: CCCCCCCCCCCCCCCCn1c(CO)nc2nc(Cl)nc(Cl)c21 [Compound 119, (2,6-dichloro-7-hexadecyl-7H-purin-8-yl)methanol]
- IC50 (read-out: IC50): 1 to 1000 nM

Compound: COC(=O)CCCCn1c(C)nc2nc(Cl)nc(S(=O)(=O)C(C)C)c21 [Compound 121, methyl 5-(2-chloro-6-(isopropylsulfonyl)-8-methyl-7H-purin-7-yl)pentanoate]
- IC50 (read-out: IC50): 1000 to 5000 nM

Compound: CCCCCCCCCCCCCCCCn1c(CO)nc2nc(Cl)nc(S(=O)(=O)C(C)C)c21 [Compound 122, (2-chloro-7-hexadecyl-6-(isopropylsulfonyl)-7H-purin-8-yl)methanol]
- IC50 (read-out: IC50): 1 to 1000 nM

Compound: COC(=O)CCCCCCCCCn1c(C)nc2nc(Cl)nc(Cl)c21 [Compound 123, Methyl 10-(2,6-dichloro-8-methyl-7H-purin-7-yl)decanoate]
- IC50 (read-out: IC50): 1000 to 5000 nM

Compound: COC(=O)CCCCCCCCCn1c(C)nc2nc(Cl)nc([S+]([O-])C(C)C)c21 (stereo not drawn) [Compound 124, methyl 10-(2-chloro-6-(isopropylsulfinyl)-8-methyl-7H-purin-7-yl)decanoate]
- IC50 (read-out: IC50): 1 to 1000 nM

Compound: COC(=O)CCCCCCCCCn1c(C)nc2nc(Cl)nc(S(=O)(=O)C(C)C)c21 [Compound 125, Methyl 10-(2-chloro-6-(isopropylsulfonyl)-8-methyl-7H-purin-7-yl)decanoate]
- IC50 (read-out: IC50): 1000 to 5000 nM

Compound: COC(=O)CCCCCCCCCCCCCCCn1c(C)nc2nc(C#N)nc(C#N)c21 [Compound 126, Methyl 16-(2,6-dicyano-8-methyl-7H-purin-7-yl)hexadecanoate]
- IC50 (read-out: IC50): > 20000 nM

Compound: Cc1nc2nc(Cl)nc([S+]([O-])C(C)C)c2n1CCCCCCCCCC[N+]1([O-])CCOCC1 (stereo not drawn) [Compound 127, 4-(10-(2-chloro-6-(isopropylsulfinyl)-8-methyl-7H-purin-7-yl)decyl)morpholine 4-oxide]
- IC50 (read-out: IC50): > 20000 nM

Compound: COC(=O)CCCCCCCCCCCCCCCn1c(C)nc2nc(Cl)nc([S+]([O-])C(C)C)c21 (stereo not drawn) [Compound 128, methyl 16-(2-chloro-6-(isopropylsulfinyl)-8-methyl-7H-purin-7-yl)hexadecanoate]
- IC50 (read-out: IC50): 1 to 1000 nM

Compound: Cc1nc2nc(Cl)nc(SC(C)C)c2n1CCCCCCCCCC[N+]1([O-])CCOCC1 [Compound 129, 4-(10-(2-chloro-6-(isopropylthio)-8-methyl-7H-purin-7-yl)decyl)morpholine 4-oxide]
- IC50 (read-out: IC50): > 20000 nM

Compound: COC(=O)CCCCCO[C@@H]1CCN(CCCCCCn2c(C)nc3nc(Cl)nc(Cl)c32)C1 [Compound 130]
- IC50 (read-out: IC50): 1 to 1000 nM

Compound: CNC(=O)CCCCCCCCCCCCCCCn1c(C)nc2nc(Cl)nc(S(=O)(=O)C(C)C)c21 [Compound 131, 16-(2-chloro-6-(isopropylsulfonyl)-8-methyl-7H-purin-7-yl)-N-methylhexadecaanamide]
- IC50 (read-out: IC50): 1 to 1000 nM

Compound: Cc1nc2nc(Cl)nc(S(=O)(=O)C(C)C)c2n1CCCCCCCCCCCCCCCC(=O)OC[C@H]1COC(C)(C)O1 [Compound 132, (R)-(2,2-dimethyl-1,3-dioxolan-4-yl)methyl 16-(2-chloro-6-(isopropylsulfonyl)-8-methyl-7H-purin-7-yl)hexadecanoate]
- IC50 (read-out: IC50): 1 to 1000 nM

Compound: Cc1nc2nc(Cl)nc(S(=O)(=O)C(C)C)c2n1CCCCCCCCCCCCCCCC(=O)OC[C@H](O)CO [Compound 133, (R)-2,3-dihydroxypropyl 16-(2-chloro-6-(isopropylsulfonyl)-8-methyl-7H-purin-7-yl)hexadecanoate]
- IC50 (read-out: IC50): 1000 to 5000 nM

Compound: Cc1nc2nc(Cl)nc(S(=O)(=O)C(C)C)c2n1CCCCCCCCCCCCCCCC(=O)OC[C@@H]1COC(C)(C)O1 [Compound 134, (S)-(2,2-dimethyl-1,3-dioxolan-4-yl)methyl 16-(2-chloro-6-(isopropylsulfonyl)-8-methyl-7H-purin-7-yl)hexadecanoate]
- IC50 (read-out: IC50): 1 to 1000 nM

Compound: Cc1nc2nc(Cl)nc(S(=O)(=O)C(C)C)c2n1CCCCCCCCCCCCCCCC(=O)OC[C@@H](O)CO [Compound 135, (S)-2,3-dihydroxypropyl 16-(2-chloro-6-(isopropylsulfonyl)-8-methyl-7H-purin-7-yl)hexadecanoate]
- IC50 (read-out: IC50): 1 to 1000 nM

Compound: Cc1nc2nc(Cl)nc([S+]([O-])C(C)C)c2n1CCCCCCCCCCN1CCOCC1 (stereo not drawn) [Compound 136, 4-(10-(2-chloro-6-(isopropylsulfinyl)-8-methyl-7H-purin-7-yl)decyl)morpholine]
- IC50 (read-out: IC50): 1 to 1000 nM

Compound: Cc1nc2nc(Cl)nc(S(=O)(=O)C(C)C)c2n1CCCCCCCCCCN1CCOCC1 [Compound 137, 4-(10-(2-chloro-6-(isopropylsulfonyl)-8-methyl-7H-purin-7-yl)decyl)morpholine]
- IC50 (read-out: IC50): 1000 to 5000 nM

Compound: Cc1nc2nc(Cl)nc(S(=O)(=O)C(C)C)c2n1CCCCCCCCCCCCCCCC(=O)O [Compound 139, 16-(2-chloro-6-(isopropylsulfonyl)-8-methyl-7H-purin-7-yl)hexadecanoic acid]
- IC50 (read-out: IC50): 1 to 1000 nM

Compound: Cc1nc2nc(Cl)nc(S(=O)(=O)C(C)C)c2n1CCCCCCCCCCCCCCCc1nnnn1C [Compound 140, 2-chloro-6-(isopropylsulfonyl)-8-methyl-7-(15-(1-methyl-1H-tetrazol-5-yl)pentadecyl)-7H-purine]
- IC50 (read-out: IC50): 1 to 1000 nM

Compound: COC(=O)CCCCCCN(C)CCCCCCCCn1c(C)nc2nc(Cl)nc(Cl)c21 [Compound 141, Methyl 7-((8-(2,6-dichloro-8-methyl-7H-purin-7-yl)octyl)(methyl)amino)heptanoate]
- IC50 (read-out: IC50): 1 to 1000 nM

Compound: Cc1nc2nc(Cl)nc(S(=O)(=O)C(C)C)c2n1CCCCCCCCCCCCCCCCN1CCOCC1 [Compound 142]
- IC50 (read-out: IC50): 1 to 1000 nM

Compound: COC(=O)CCCCCO[C@@H]1CCN(CCCCCCn2c(C)nc3nc(Cl)nc(S(=O)(=O)C(C)C)c32)C1 [Compound 143, (3R)-1-(6-(2-chloro-6-(isopropylsulfonyl)-8-methyl-7H-purin-7-yl)hexyl)-3-((6-methoxy-6-oxohexyl)oxy)pyrrolidin-1-ium chloride]
- IC50 (read-out: IC50): 1000 to 5000 nM

Compound: Cc1nc2nc(Cl)nc(S(=O)(=O)C(C)C)c2n1CCCCCCCCCCCCCCCC(=O)OCCO [Compound 144, 2-hydroxyethyl 16-(2-chloro-6-(isopropylsulfonyl)-8-methyl-7H-purin-7-yl)hexadecanoate]
- IC50 (read-out: IC50): 1 to 1000 nM

Compound: Cc1nc2nc(Cl)nc(S(=O)(=O)C(C)C)c2n1CCCCCCCCCCCCCCCC(=O)N1CCOCC1 [Compound 145, 16-(2-chloro-6-(isopropylsulfonyl)-8-methyl-7H-purin-7-yl)-1-morpholinohexadecan-1-one]
- IC50 (read-out: IC50): 1 to 1000 nM

Compound: Cc1nc2nc(Cl)nc(S(=O)(=O)CCO)c2n1CCCCCCCCCCCCCCCC(=O)OC(C)C [Compound 146, isopropyl 16-(2-chloro-6-((2-hydroxyethyl)sulfonyl)-8-methyl-7H-purin-7-yl)hexadecanoate]
- IC50 (read-out: IC50): 1 to 1000 nM

Compound: COC(=O)CCCCCCCCCCCCCCCn1c(C)nc2nc(Cl)nc(S(=O)(=O)CCN)c21 [Compound 147, methyl 16-(6-((2-aminoethyl)sulfonyl)-2-chloro-8-methyl-7H-purin-7-yl)hexadecanoate]
- IC50 (read-out: IC50): 1000 to 5000 nM

Compound: COC(=O)[C@@H](NC(=O)CCCCCCCCCCCCCCCn1c(C)nc2nc(Cl)nc(S(=O)(=O)C(C)C)c21)C(C)C [Compound 148, methyl (16-(2-chloro-6-(isopropylsulfonyl)-8-methyl-7H-purin-7-yl)hexadecanoyl)-L-valinate]
- IC50 (read-out: IC50): 1 to 1000 nM

Compound: Cc1nc2nc(Cl)nc(S(=O)(=O)C(C)C)c2n1CCCCCCCCCCCCCCCC(N)=O [Compound 149, 16-(2-chloro-6-(isopropylsulfonyl)-8-methyl-7H-purin-7-yl)hexadecanamide]
- IC50 (read-out: IC50): 1 to 1000 nM

Compound: Cc1nc2nc(Cl)nc(S(=O)(=O)C(C)C)c2n1CCCCCCCCCCCCCCCC(=O)N(C)C [Compound 150, 16-(2-chloro-6-(isopropylsulfonyl)-8-methyl-7H-purin-7-yl)-N,N-dimethylhexadecanamide]
- IC50 (read-out: IC50): 1 to 1000 nM

Compound: CC(=O)OCCCCCCCCn1c(C)nc2nc(Cl)nc(Cl)c21 [Compound 151, 8-(2,6-dichloro-8-methyl-7H-purin-7-yl)octyl acetate]
- IC50: 1000 to 5000 nM
